Laboratory results: patent publication US20120270183A1, “METHOD OF TREATING AND/OR PREVENTING CONDITIONS CAUSED BY MICROORGANISMS USING AN ORAL LIGHT DEVICE” (COLGATE-PALMOLIVE COMPANY, priority 2009, published 2012)
“Also recorded” adds a separate entry of the source.

Experiments:
biofilm of A. naeslundi = test: Biofilm reduction by photosensitizer plus light; type: cell-based; settings: 0.1% photosensitizer in the presence of light
Procedure: Bacterial biofilms (24 h old) were treated with the photosensitizers or photo-triggered actives described in the tables below at a concentration less than their minimum inhibitory concentration (MIC). The actives were either pre-incubated before light exposure for 2 s to 15 min, typically less than 2 min, or administered at the same time the biofilm was exposed to the light. The bacteria were irradiated at a set wavelength for 2 s to 15 min (typically less than 2 min) at an energy dose between 1-450 J/cm^2. Optical power densities typically ranged from 1-500 mW/cm^2. Light was either pulsed or provided in one continuous light exposure. Pulsed light treatments were preferred for high optical energy treatments.
On a biofilm of A. naeslundi, the impact of four “photosensitizers” (0.1% concentration) in the presence of light was evaluated. MIC typically ranged from 0.0001% (w/v) to 1% (w/v). The percent biofilm reduction is tabulated below.

[1] = test system: TNFα of HEPM cells stimulated by IL-1β; test: Cytokine (TNFα) concentration in IL-1β stimulated cell culture after light plus dye; type: cell-based, human; settings: Fast Green at 1000 ppm combined with light at 625 nm for 2 minutes, 9 mW/cm^2, 1.1 J/cm^2
Procedure: Cells used in this example include human embryonic palatal mesenchymal (HEPM) cells and oral keratinocytes OBA9 cells. The embodiments also can be used with other cells such as human gingival fibroblasts (HGF). Cells were seeded in 24-well plates and cultured until reaching a confluence above 80%. The confluent-stage cells were treated with stimulants such as IL-1β followed by light irradiation alone, or light irradiation combined with GRAS photosensitizing dye. The cells were either pre-incubated in photosensitizing dye before light exposure, or administered at the same time of light exposure. The cells were incubated in photosensitizing dyes for varied amounts of time, the concentration of photosensitizing dyes were varied, and the cell were irradiated with light for varied amounts of time per exposure, as well as irradiation either one time or multiple times, as described below. After irradiation, the cells were incubated at 37° C. The cell culture media was collected after a certain amount of time for cytokine analysis.
The results tabulated below reveal that visible light (various wavelength, 380-700 nm) alone and photosensitizing dye irradiated with visible light (various wavelength, 380-700 nm) have anti-inflammation effect. […]

Compound	Biofilm reduction compared to light alone (in words) (biofilm of A. naeslundi)	Effect on TNFα concentration (in words) [1]
COc1cc(S(=O)(=O)[O-])c(C)cc1N=Nc1c(O)ccc2cc(S(=O)(=O)[O-])ccc12.[Na+].[Na+] [Allura Red, Allura Red AC]	increased biofilm reduction compared to light alone	
CCN(Cc1cccc(S(=O)(=O)[O-])c1)c1ccc(C(=C2C=CC(=[N+](CC)Cc3cccc(S(=O)(=O)[O-])c3)C=C2)c2ccc(O)cc2S(=O)(=O)[O-])cc1.[Na+].[Na+] [Fast Green, Fast Green FCF]	increased biofilm reduction compared to light alone	can decrease pro-inflammation cytokine TNFα concentration; also recorded: can reduce concentration of TNFα
CN(C)c1ccc(C(=C2C=CC(=[N+](C)C)C=C2)c2c(O)c(S(=O)(=O)[O-])cc3cc(S(=O)(=O)[O-])ccc23)cc1.[Na+] [Lissamine Green B]	increased biofilm reduction compared to light alone	
Cc1cc2nc3c(=O)[nH]c(=O)nc-3n(C[C@H](O)[C@H](O)[C@H](O)CO)c2cc1C [Riboflavin]	increased biofilm reduction compared to light alone	
O=C([O-])C1=NN(c2ccc(S(=O)(=O)[O-])cc2)C(=O)C1N=Nc1ccc(S(=O)(=O)[O-])cc1.[Na+].[Na+].[Na+] (stereo not drawn) [Tartrazine]	increased biofilm reduction compared to light alone	
